# Measurements taken from patent publication US20240060131A1, “METHOD FOR IDENTIFYING AND/OR REGULATING SENESCENCE” (INSTITUTE OF ZOOLOGY, CHINESE ACADEMY OF SCIENCES, priority 2020, published 2024).
# System: cGAS-STING pathway
# Test: cGAS-STING innate immune pathway and SASP in hMPCs (Western blot, RT-qPCR)
# Format: cell-based, human
# Settings: knockdown in HGPS and WS hMPCs
# Method: Cells were lysed in 1×SDS buffer (100 mM Tris-HCl, pH 6.8, 10% glycerol, 2% SDS and 2%2-mercaptoethanol), boiled for 10 min at 105° C. Protein concentration was measured by BCA kit. Cell lysate was subjected to SDS-PAGE electrophoresis, then transferred to PVDF membrane (Millipore). The membrane was incubated with primary antibody, incubated with secondary antibody conjugated to HRP after washing, then blotted with substrate, the substrate was the mixture of 1000 μL substrate A and 3 μL substrate B (substrate A: 0.2 mM cumaric acid, 1.25 mM luminal, 0.1 M Tris-HCl, pH 8.5; substrate B: 3% H2O2) or Super Signal West Femto Maximum Sensitivity Substrate (Thermo Fisher Scientific). Images were taken by Image Lab software. Quantification was conducted by ImageJ.
# In accordance with the manufacturer's instructions, total RNA of cell was extracted by TRIzol (Thermo Fisher Scientific); reverse transcribed into cDNA with GoScript reverse transcription system (Promega) for RT-qPCR; RT-qPCR was conducted with THUNDERBIRD qPCR Mix (TOYOBO) and CFX384 real-time system (Bio-Rad Laboratories, Inc.).
# To further study the activation of cGAS-STING DNA sensing pathway, the following key characteristics in different senescent hMPCs (including RS, HGPS and WS) and fibroblasts were detected: […] TANK binding kinase 1 (TBK1) and IFN regulating factor 3 (IRF3) as well as proinflammatory cytokines (e.g., IL1B andIL6), these factors were regarded as SASP factors.
substance,measurement,value
shSTING-2 (guide GCCCGGATTCGAACTTACAAT; chemistry not given here),SASP,alleviated
same,cell senescence,alleviated
same,phosphorylation level of IRF3,reduced
same,phosphorylation level of RelA,reduced
same,phosphorylation level of TBK1,reduced
